US8399681B2, “Substituted aminothiazolone indazoles as estrogen related receptor-alpha modulators” (Janssen Pharmaceutica NV, priority 2009, dated 2013)

Assays:
[1] = system: Zucker fa/fa male rats; experiment: Zucker fa/fa Rat Model Assay; format: in vivo; conditions: dosed orally once a day for 4 days, blood collected at day 5
Source text: Zucker fa/fa is a monogenic model of frank diabetes due to a mutation on the fa gene truncating the leptin receptor and preventing its interaction with its peptide hormone. This mutation results in a hyperphagic phenotype and the rodent develops obesity, hyperlipidemia, fasting hyperglycemia and insulin resistance. Zucker fa/fa male rats were received at four weeks of age and allowed to acclimate for one week. At five weeks of age the animals were single housed in cages in a temperature-controlled room with 12-hour light/dark cycle. The rats were allowed ad libitum access to water and food and throughout the study were maintained on a Purina 5008 diet. Animals were sorted based primarily on fed insulin levels and circulating triglycerides. Animals were dosed orally once a day in the morning for 4 days. The vehicle used was either 20% HPβCD (Hydroxypropyl Beta Cyclodextrin) or 15% Vitamin E/30% PEG-400 (Polyethylene Glycol 400). Fed insulin and triglycerides were measured using blood collected from the tail vein at day 5. Serum plasma samples were prepared by centrifugation in EDTA (Ethylenediaminetetraacetic acid) containing tubes, transferred into 96 well plates and stored at −80° C.

[2] = biological target: T1, ERR1 (also known as ERR-α or ERR-1) (Homo sapiens, UniProt P11474); experiment: TR-FRET assay (disruption of co-activator peptide binding); format: biochemical; conditions: 6His-tagged ERR1 LBD, GST-hSRC2 co-activator polypeptide; average of 3 independent experiments
T1 sequence (P11474 193-421 limits assumed): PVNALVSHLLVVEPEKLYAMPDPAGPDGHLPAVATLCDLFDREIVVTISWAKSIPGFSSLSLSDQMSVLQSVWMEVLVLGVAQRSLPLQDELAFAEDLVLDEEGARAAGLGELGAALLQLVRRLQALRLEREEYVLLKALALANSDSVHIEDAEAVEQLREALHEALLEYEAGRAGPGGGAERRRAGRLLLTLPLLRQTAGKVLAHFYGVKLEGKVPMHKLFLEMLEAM
Summary of the method: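 His6-ERR1 LBD (6 nM) with GST-SRC-2 peptide (6 nM), anti-GST Eu cryptate (30 nM) and anti-His XL665 (7.5 nM) in Tris pH 8/KCl/DTT/BSA buffer, equilibrated 4-18 h at 25 °C. Ex 340, em 615/665 nm; hyperbolic dose-response fit, mean of 3 experiments.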

SMILES | EC50 [2] [nM] | % Lowering Fed Insulin Levels [1] [%] | % Lowering Fed Triglyceride Levels [1] [%]
O=C1N=C(N2CCCNCC2)S/C1=C\c1ccc2c(cnn2Cc2ccc(Cl)cc2C(F)(F)F)c1 [Example 54, 5-[1-(4-Chloro-2-trifluoromethyl-benzyl)-1H-indazol-5-ylmethylene]-2-[1,4]diazepan-1-yl-thiazol-4-one] | 13.1 | 60 | 27
O=C1N=C(N2CC(C(=O)O)C2)S/C1=C\c1ccc2c(cnn2Cc2ccc(Cl)cc2C(F)(F)F)c1 [Example 40, 1-{5-[1-(4-Chloro-2-trifluoromethyl-benzyl)-1H-indazol-5-ylmethylene]-4-oxo-4,5-dihydro-thiazol-2-yl}-azetidine-3-carboxylic acid] | 8 | 75 | 60
NC1CN(C2=NC(=O)/C(=C/c3ccc4c(cnn4Cc4ccc(Cl)cc4C(F)(F)F)c3)S2)C1 [Example 98, 2-(3-Amino-azetidin-1-yl)-5-[1-(4-chloro-2-trifluoromethyl-benzyl)-1H-indazol-5-ylmethylene]-thiazol-4-one] | 15 | 51 | 22
O=C1N=C(N2CCC(C(=O)O)CC2)S/C1=C\c1ccc2c(cnn2Cc2ccc(Cl)cc2C(F)(F)F)c1 [Example 39, 1-{5-[1-(4-Chloro-2-trifluoromethyl-benzyl)-1H-indazol-5-ylmethylene]-4-oxo-4,5-dihydro-thiazol-2-yl}-piperidine-4-carboxylic acid] | 3.2 | 58 | 35
N[C@@H]1CCN(C2=NC(=O)/C(=C/c3ccc4c(cnn4Cc4ccc(Cl)cc4C(F)(F)F)c3)S2)C1 [Example 62, 2-(3-(R)-Amino-pyrrolidin-1-yl)-5-[1-(4-chloro-2-trifluoromethyl-benzyl)-1H-indazol-5-ylmethylene]-thiazol-4-one] | 17.3 | 48 | 36
O=C1N=C(N2CCC(C(=O)O)CC2)S/C1=C\c1ccc2c(cnn2Cc2ccc(C(F)(F)F)cc2C(F)(F)F)c1 [Compound 1, 1-{5-[1-(2,4-Bis-trifluoromethyl-benzyl)-1H-indazol-5-ylmethylene]-4-oxo-4,5-dihydro-thiazol-2-yl}-piperidine-4-carboxylic acid] | 10.1 | 58 | 37
O=C1N=C(N2CCNCC(O)C2)S/C1=C\c1ccc2c(cnn2Cc2ccc(Cl)cc2C(F)(F)F)c1 (centres unmarked) [Example 125, 5-[1-(4-Chloro-2-trifluoromethyl-benzyl)-1H-indazol-5-ylmethylene]-2-(6-hydroxy-[1,4]diazepan-1-yl)-thiazol-4-one] | 10 | 30 | 
O=C1N=C(N2CCc3c(O)noc3C2)S/C1=C\c1ccc2c(cnn2Cc2ccc(Cl)cc2C(F)(F)F)c1 [Example 197, 5-({1-[4-Chloro-2-(trifluoromethyl)benzyl]-1H-indazol-5-yl}methylidene)-2-(3-hydroxy-4,7-dihydroisoxazolo[5,4-c]pyridin-6(5H)-yl)-1,3-thiazol-4(5H)-one] | 29 | 27 | 2
N[C@H]1CCCN(C2=NC(=O)/C(=C/c3ccc4c(cnn4Cc4ccc(C(F)(F)F)cc4C(F)(F)F)c3)S2)C1 [Example 52, 2-(3-(S)-Amino-piperidin-1-yl)-5-[1-(2,4-bis-trifluoromethyl-benzyl)-1H-indazol-5-ylmethylene]-thiazol-4-one] | 4.5 | 86 | 55
CN[C@H]1CCN(C2=NC(=O)/C(=C/c3ccc4c(cnn4Cc4ccc(Cl)cc4C(F)(F)F)c3)S2)C1 (stereo in doubt) [Example 115, 5-[1-(4-Chloro-2-trifluoromethyl-benzyl)-1H-indazol-5-ylmethylene]-2-(3-methylamino-pyrrolidin-1-yl)-thiazol-4-one] | 8.4 |  | 

Continued, in another order:

EC50 [2] [nM] | SMILES | % Lowering Fed Insulin Levels [1] [%] | % Lowering Fed Triglyceride Levels [1] [%]
37 | O=C1N=C(N2CCOC[C@H]2CO)S/C1=C\c1ccc2c(cnn2Cc2ccc(C(F)(F)F)cc2C(F)(F)F)c1 [Example 141, 5-[1-(2,4-Bis-trifluoromethyl-benzyl)-1H-indazol-5-ylmethylene]-2-(3(R)-hydroxymethyl-morpholin-4-yl)-thiazol-4-one] | 49 | 76
16 | O=C1N=C(N2CCN[C@@H](CO)C2)S/C1=C\c1ccc2c(cnn2Cc2ccc(C(F)(F)F)cc2C(F)(F)F)c1 [Example 139, 5-[1-(2,4-Bis-trifluoromethyl-benzyl)-1H-indazol-5-ylmethylene]-2-(3-(R)-hydroxymethyl-piperazin-1-yl)-thiazol-4-one] | 82 | 58
19.7 | O=C1N=C(N2CCOC(C(=O)O)C2)S/C1=C\c1ccc2c(cnn2Cc2ccc(C(F)(F)F)cc2C(F)(F)F)c1 (centres unmarked) [Example 188, 4-[5-({1-[2,4-Bis(trifluoromethyl)benzyl]-1H-indazol-5-yl}methylidene)-4-oxo-4,5-dihydro-1,3-thiazol-2-yl]morpholine-2-carboxylic acid] | 81 | 59
15 | O=C(O)C1=CCN(C2=NC(=O)/C(=C/c3ccc4c(cnn4Cc4ccc(Cl)cc4C(F)(F)F)c3)S2)CC1 [Example 198, 1-[5-({1-[4-Chloro-2-(trifluoromethyl)benzyl]-1H-indazol-5-yl}methylidene)-4-oxo-4,5-dihydro-1,3-thiazol-2-yl]-1,2,3,6-tetrahydropyridine-4-carboxylic acid] | 35 | 21
21 | COC(=O)N[C@@H]1C[C@H](CO)N(C2=NC(=O)/C(=C/c3ccc4c(cnn4Cc4ccc(C(F)(F)F)cc4C(F)(F)F)c3)S2)C1 [Example 213, Methyl {1-[5-({1-[2,4-bis(trifluoromethyl)benzyl]-1H-indazol-5-yl}methylidene)-4-oxo-4,5-dihydro-1,3-thiazol-2-yl]-5-(R)-(hydroxymethyl)pyrrolidin-3-(R)-yl}carbamate] | 42 | 30
19 | O=C1N=C(N2CCO[C@H](CO)C2)S/C1=C\c1ccc2c(cnn2Cc2ccc(C(F)(F)F)cc2C(F)(F)F)c1 [Example 140, 5-[1-(2,4-Bis-trifluoromethyl-benzyl)-1H-indazol-5-ylmethylene]-2-((2S)-hydroxymethyl-morpholin-4-yl)-thiazol-4-one] | 59 | 67
795 | CN1CCN(C2=NC(=O)/C(=C/c3ccc4c(cnn4Cc4ccc(C(C)(C)O)cc4Cl)c3)S2)CC1 [Example 232, 5-({1-[2-Chloro-4-(1-hydroxy-1-methylethyl)benzyl]-1H-indazol-5-yl}methylidene)-2-(4-methylpiperazin-1-yl)-1,3-thiazol-4(5H)-one] |  | 
26 | CN(C)CC1(O)CCN(C2=NC(=O)/C(=C/c3ccc4c(cnn4Cc4ccc(Cl)cc4C(F)(F)F)c3)S2)CC1 [Example 163, 5-[1-(4-Chloro-2-trifluoromethyl-benzyl)-1H-indazol-5-ylmethylene]-2-(4-dimethylaminomethyl-4-hydroxy-piperidin-1-yl)-thiazol-4-one] |  | 
11 | C=C(C)c1ccc(Cn2ncc3cc(/C=C4\SC(N5CCO[C@@H](CO)C5)=NC4=O)ccc32)c(C(F)(F)F)c1 [Example 275, 2-[(2R)-2-(Hydroxymethyl)morpholin-4-yl]-5-({1-[4-(1-methylethenyl)-2-(trifluoromethyl)benzyl]-1H-indazol-5-yl}methylidene)-1,3-thiazol-4(5H)-one] |  | 
71 | O=C1N=C(N2CCC(C(=O)NS(=O)(=O)N3CCCC3)CC2)S/C1=C\c1ccc2c(cnn2Cc2ccc(C(F)(F)F)cc2C(F)(F)F)c1 [Example 173, Pyrrolidine-1-sulfonic acid (1-{5-[1-(2,4-bis-trifluoromethyl-benzyl)-1H-indazol-5-ylmethylene]-4-oxo-4,5-dihydro-thiazol-2-yl}-piperidine-4-carbonyl)-amide] |  | 
5 | CN1CCN(C2=NC(=O)/C(=C/c3ccc4c(cnn4Cc4ccc(C(F)(F)F)cc4C(F)(F)F)c3)S2)[C@@H](CO)C1 [Example 253, 5-({1-[2,4-Bis(trifluoromethyl)benzyl]-1H-indazol-5-yl}methylidene)-2-[(2R)-2-(hydroxymethyl)-4-methylpiperazin-1-yl]-1,3-thiazol-4(5H)-one] |  | 
